In one data set the test system is Sprague-Dawley rats. The data set can be described thus: Contextual fear conditioning in rats. The class given is in vivo. The settings on record: for time spent freezing during the retention test: 24 h after acquisition. The text has this:
The compound administered in the present experiment was 1-[2-(2,4-dimethylphenylsulfanyl)phenyl]piperazine HBr salt.
We have studied the effect of the compound on acquisition, consolidation and recall of contextual fear conditioning in rats. In the fear conditioning paradigm animals learn to associate a neutral environment (context, the training chamber, CS) with an aversive experience (an electrical foot-shock, US). During re-exposure to the training chamber, animals express a freezing behaviour, which is taken as a direct measure of the fear-related memory [Pavlov J. Biol. Sci., 15, 177-182, 1980]. […] Neurosci., 106, 274-285, 1992].
Adult male Sprague-Dawley rats (weighing 250-300 g at time of training) from Charles River Laboratories, housed two per cage under a 12 h light/dark cycle, were used. Food and water were available ad libitum. Rats were used 1 week after arrival. The compound was dissolved in 10% HPbetaCD and injected subcutaneously. The drug was administered in a volume of 2.5 ml/kg.
Training and testing were conducted in a soundproof chamber (30×20×40 cm) housed in an isolated room and connected to a ventilation system. Illumination was provided by a white light (60 Watt). The floor of the chamber consisted of a metal grid attached to an electric shock generator. Prior to training and testing, the chamber was cleaned with a 70% ethanol solution. A video camera allowed for behavioral observations and recording of the training session for off-line analysis.
During the acquisition animals were allowed to freely explore the novel environment for a 1 min habituation period, which co-terminated with one inescapable foot-shock (unconditioned stimulus, US) through the electrifiable grid floor. […] Animals remained in the conditioning chamber for another 60 s after the US. Freezing behaviour was scored during the first 58 s (pre-shock acquisition; experimenter blinded to groups) to determine baseline-freezing responses to the context. At the end of the acquisition animals were gently removed and placed into their home cages. After 24 h the same animals were reintroduced into the training context (fear conditioning chamber) and a 2 min retention test was performed. During this period no foot shocks were applied. Freezing behaviour was scored during the whole test period with the experimenter blinded to groups and presented as percent of total test period.

The next data set deals with acetylcholine. Nature of the data set: Microdialysis: extracellular acetylcholine in the brain of freely moving rats. The class given is in vivo, Sprague-Dawley rats. The settings on record: rat, subcutaneously 2.5-10 mg/kg. The procedure:
The animals were administered 1-[2-(2,4-dimethylphenylsulfanyl)phenyl]-piparazine, HBr salt.
Male Sprague-Dawley rats, initially weighing 275-300 g, were used. The animals were housed under a 12-hr light/dark cycle under controlled conditions for regular in-door temperature (21±2° C.) and humidity (55±5%) with food and tap water available ad libitum.
Rats were anaesthetised with hypnorm/dormicum (2 ml/kg) and intracerebral guide cannulas (CMA/12) were stereotaxically implanted into the brain, aiming at positioning the dialysis probe tip in the ventral hippocampus (co-ordinates: 5.6 mm posterior to bregma, lateral −5.0 mm, 7.0 mm ventral to dura) or in the prefrontal cortex (co-ordinates: 3.2 mm anterior to bregma; lateral, 0.8 mm; 4.0 mm ventral to dura). […] The body temperature of the animals was monitored by rectal probe and maintained at 37° C. […]
The compound dissolved in 10% HPbetaCD and injected subcutaneously (2.5-10 mg/kg). Doses are expressed as mg salt/kg body weight. […]
Concentration of acetylcholine (ACh) in the dialysates was analysed by means of HPLC with electrochemical detection using a mobile phase consisting of 100 mM disodium hydrogenphosphate, 2.0 mM octane sulfonic acid, 0.5 mM tetramethyl-ammonium chloride and 0.005% MB (ESA), pH 8.0. […] The latter was detected electrochemical by using a platinum electrode (Analytical cell: ESA, model 5040). […]

The next data set can be described thus: physchem. The settings on record: water.
Data set [1] deals with Rat serotonin transporter (Rattus norvegicus, UniProt P31652). Nature of the data set: Rat serotonin transporter, blockade of 5-HT uptake. The format is biochemical.
Sequence of Rat serotonin transporter (P31652 whole entry): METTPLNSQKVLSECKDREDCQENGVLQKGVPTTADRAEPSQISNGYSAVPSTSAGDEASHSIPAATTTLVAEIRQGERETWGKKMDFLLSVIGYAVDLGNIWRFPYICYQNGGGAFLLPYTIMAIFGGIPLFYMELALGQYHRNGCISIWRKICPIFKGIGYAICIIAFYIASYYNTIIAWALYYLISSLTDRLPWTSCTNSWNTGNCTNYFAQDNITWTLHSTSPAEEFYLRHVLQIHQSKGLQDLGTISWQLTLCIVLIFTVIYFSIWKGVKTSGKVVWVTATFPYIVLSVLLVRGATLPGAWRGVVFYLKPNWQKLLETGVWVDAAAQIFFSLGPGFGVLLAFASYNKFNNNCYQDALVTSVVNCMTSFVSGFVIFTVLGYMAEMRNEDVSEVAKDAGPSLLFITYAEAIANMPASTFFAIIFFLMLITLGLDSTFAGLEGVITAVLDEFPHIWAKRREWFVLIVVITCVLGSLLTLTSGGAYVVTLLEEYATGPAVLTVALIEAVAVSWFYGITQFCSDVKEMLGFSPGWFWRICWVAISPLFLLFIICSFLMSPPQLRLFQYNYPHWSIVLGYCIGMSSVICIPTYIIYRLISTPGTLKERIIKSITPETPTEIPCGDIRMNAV
Another data set addresses T1, Human 5-HT3A receptor (Homo sapiens, UniProt P46098).
T1 sequence (P46098 24-478): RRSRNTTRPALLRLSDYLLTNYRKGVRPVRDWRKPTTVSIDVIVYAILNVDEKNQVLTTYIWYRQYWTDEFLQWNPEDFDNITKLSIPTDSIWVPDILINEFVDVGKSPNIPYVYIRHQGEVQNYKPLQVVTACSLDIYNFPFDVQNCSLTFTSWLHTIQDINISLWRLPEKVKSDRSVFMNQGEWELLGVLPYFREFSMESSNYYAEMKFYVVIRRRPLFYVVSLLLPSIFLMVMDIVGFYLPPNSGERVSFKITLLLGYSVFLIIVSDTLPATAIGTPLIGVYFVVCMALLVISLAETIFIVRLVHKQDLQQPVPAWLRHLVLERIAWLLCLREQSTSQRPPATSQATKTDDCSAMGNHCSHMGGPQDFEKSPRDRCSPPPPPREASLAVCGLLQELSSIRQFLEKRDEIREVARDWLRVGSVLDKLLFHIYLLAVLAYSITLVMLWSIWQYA
The data set can be described thus: Human 5-HT3A receptor functional assay (cloned into oocytes). The format is cell-based. The settings on record: at higher concentration, read-out: ED50 (agonistic activity). The text has this:
As shown in example 1, the compounds of the present invention are potent inhibitors of the human serotonin transporter, i.e. they inhibit serotonin reuptake. Moreover, the compounds are potent antagonists at the mouse, rat, guinea pig and canine 5-HT3 receptor. […] Thus, at low concentrations compounds of the present invention display a marked antagonism at the human 5-HT3 receptor as observed on the 5-HT3 receptor from other species.

Data set [2] in a line: Hygroscopicity (water absorption versus relative humidity). The format is physicochemical.

pEC50, pIC50: −log10 of the molar value. Values after ≈ are worked out from the molar mass of the structure shown. Read-outs that look alike come from different tables or passages of the source.

Regarding `Br.Cc1ccc(Sc2ccccc2N2CCNCC2)c(C)c1` [1-[2-(2,4-dimethylphenylsulfanyl)phenyl]piperazine HBr salt], the “time spent freezing during the retention test” value worked out at 39.24±13.76% in the data set on Sprague-Dawley rats (5 mg/kg s.c. 1 h prior to acquisition); 45.58±4.50% with Sprague-Dawley rats (5 mg/kg s.c. after the acquisition session, p<0.05); 52.15±5.68% in the data set on Sprague-Dawley rats (10 mg/kg s.c. 1 h prior to acquisition, p<0.01). For the same compound, the “freezing behaviour during the memory test” value in the data set with Sprague-Dawley rats (5 mg/kg s.c. 1 h prior to the retention test, p<0.05) is listed as 12.86±3.57%. For the same compound, the “contextual memory” value with Sprague-Dawley rats (rats) is listed as “enhances contextual memory”. In the data set with Sprague-Dawley rats (rats, 1, 5 and 10 mg/kg s.c. 1 h prior to acquisition), the “baseline freezing behaviour before the foot shock” value was “does not affect”. For the same compound, the “extra-cellular levels of ACh in prefrontal cortex” value with acetylcholine (FIG. 19a) is given as “significantly increased”. Further, the “extra-cellular levels of ACh in ventral hippocampus” value in the data set on acetylcholine (FIG. 19b) is given as “significantly increased”.
A word on the solubility: it is the concentration that dissolves in the medium under given conditions. A higher solubility goes with much dissolved substance. In the case of `Cc1ccc(Sc2ccccc2N2CCNCC2)c(C)c1.O=C(O)C(O)C(O)C(=O)O` [L-(+)-tartrate, 1-[2-(2,4-Dimethylphenylsulfanyl)-phenyl]piperazine (+)-tartaric acid], the solubility in the data set “physchem” is around 400 µg/mL.
For the compound `Br.Cc1ccc(Sc2ccccc2N2CCNCC2)c(C)c1` [beta form of the hydrobromide, 1-[2-(2,4-Dimethylphenylsulfanyl)-phenyl]piperazine hydrobromide], the solubility in water in the data set “Solubility in water” (hydrobromide) came to 1200 µg/mL.
Broadly, the pIC50 is the IC50 on a negative log10 scale, so that one unit is a factor of ten. A low value points to a large IC50. As to `Cc1ccc(Sc2ccccc2N2CCNCC2)c(C)c1` [compound I, 1-[2-(2,4-dimethylphenylsulfanyl)-phenyl]piperazine], the pIC50 in data set [1] was 8.28. On Human 5-HT3A receptor, the pEC50 is 5.68.
On to `Cc1ccc(Sc2ccccc2N2CCNCC2)c(C)c1` [crystalline base, 1-[2-(2,4-Dimethylphenylsulfanyl)-phenyl]piperazine], for which the “hygroscopicity” value in data set [2] is “not hygroscopic”. The solubility in water in the data set “Solubility in water” turned out to be 100 µg/mL (≈ 335 µM).
Regarding `Br.CCOC(C)=O.Cc1ccc(Sc2ccccc2N2CCNCC2)c(C)c1` [ethyl acetate solvate, 1-[2-(2,4-Dimethylphenylsulfanyl)-phenyl]piperazine HBr EtOAc solvate], the “hygroscopicity” value in data set [2] is recorded as “hygroscopic”.
Compound `Cc1ccc(Sc2ccccc2N2CCNCC2)c(C)c1.O=C(O)/C=C/C(=O)O` [fumarate, 1-[2-(2,4-Dimethyl-phenylsulfanyl)-phenyl]-piperazine fumarate] gave a solubility in the data set “physchem” of 400 µg/mL.
As to `Br.Cc1ccc(Sc2ccccc2N2CCNCC2)c(C)c1` [gamma form of the hydrobromide, 1-[2-(2,4-Dimethylphenylsulfanyl)-phenyl]piperazine hydrobromide], the “water absorbed at 30% RH” value in data set [2] (30% RH at room temperature) is on record as “about 2%”.
With `Br.Cc1ccc(Sc2ccccc2N2CCNCC2)c(C)c1` [hemi hydrate of the hydrobromide], the water content result in data set [2] (room temperature and 95% RH) was “about 3.7%”.
In the case of `Cc1ccc(Sc2ccccc2N2CCNCC2)c(C)c1.Cl` [hydrochloride monohydrate, 1-[2-(2,4-Dimethylphenylsulfanyl)-phenyl]piperazine HCl], the “hygroscopicity” value in data set [2] was “does not absorb further amount of water”. In the data set “physchem”, this compound showed a solubility of around 2000 µg/mL.
In the data set “physchem”, `Cc1ccc(Sc2ccccc2N2CCNCC2)c(C)c1.O=C(O)/C=C\C(=O)O` [maleate, 1-[2-(2,4-Dimethylphenylsulfanyl)-phenyl]piperazine Maleate] returned a solubility of around 1000 µg/mL.
For the compound `CS(=O)(=O)O.Cc1ccc(Sc2ccccc2N2CCNCC2)c(C)c1` [mesylate, 1-[2-(2,4-Dimethylphenylsulfanyl)-phenyl]piperazine mesylate], the “hygroscopicity” value in data set [2] is on record as “hygroscopic”. This compound also displayed a solubility in “physchem” above 45000 µg/mL.
Compound `Cc1ccc(Sc2ccccc2N2CCNCC2)c(C)c1.O=[N+]([O-])O` [nitrate, 1-[2-(2,4-Dimethylphenylsulfanyl)-phenyl]piperazine nitrate] displayed a solubility in “physchem” of around 800 µg/mL.
Regarding `Cc1ccc(Sc2ccccc2N2CCNCC2)c(C)c1.O=P(O)(O)O` [phosphate, 1-[2-(2,4-Dimethylphenylsulfanyl)-phenyl]piperazine phosphate], in the data set “physchem”, the solubility is around 1000 µg/mL.
In “physchem”, `Cc1ccc(Sc2ccccc2N2CCNCC2)c(C)c1.O=S(=O)(O)O` [sulphate, 1-[2-(2,4-Dimethylphenylsulfanyl)-phenyl]piperazine sulphate] gave a solubility of around 100 µg/mL.

(Values after patent publication US11458134B2, “1-[2-(2,4-dimeihylphenylsulfanyl)-phenyl]piperazine as a compound with combined serotonin reuptake, 5-HT3 and 5-HT1A activity for the treatment of cognitive impairment” (H. Lundbeck A/S, priority 2006, dated 2022).)
